# According to patent US11896573B2, “Pharmaceutical compositions and pharmacokinetics of a gamma-hydroxybutyric acid derivative” (priority 2020, dated 2024):
# “And” between values parts separate entries of the source, which are not always exact repeats. Identical values can stand only once. Like-named read-outs stand apart in the source and are kept apart here.
# Tests used:
# [1] = Single ascending dose study, plasma pharmacokinetics of Compound (1) and GHB; format: in vivo, human; details: fasted; for Tmax / AUC(0-inf) / AUC(0-t) / Cmax / half-life: human, plasma; for Tmax: read-out: Compound (1) plasma Tmax, Median; for AUC(0-inf) / AUC(0-t) / Cmax / half-life: po
# Protocol: The plasma concentrations of Compound (1) and GHB in plasma in healthy human subjects were measured using liquid chromatography tandem mass-spectroscopy and evaluated using PHOENIX™ WINNONLIN® version 8.1 (Pharsight Corporation, USA) and MICROSOFT® EXCEL® (Microsoft Corporation, USA).
# All randomized subjects who received Compound (1), with available pharmacokinetic (PK) data and without relevant deviations interfering with the PK evaluations, were included. Subjects who received only placebo were excluded from the PK population. In addition, the PK population was used for the summaries and analyses of all PK data.
# A randomized, double-blind, single-center, single ascending dose study was undertaken to evaluate the safety, tolerability, and pharmacokinetics of Compound (1) and GHB in healthy subjects.
# Compound (1) was administered to randomized healthy subjects at doses from 0.1 g to 7.25 g as an aqueous solution of Compound (1) in water. The subjects fasted for at least 10 hours overnight with clear liquids allowed prior to dosing and the subjects were fasted for 4 hours after dosing.
# Plasma samples were obtained at various times following oral administration and the plasma concentrations of Compound (1) and GHB were measured.
# [2] = Cohort 7 (7.25 g) single oral dose
compound,measurement,setting,value
"CC(C)[C@H](N)C(=O)OCCCC(=O)O [Compound (1), 4-((L-valyl)oxy)butanoic acid]","Compound (1) CL/F, Median",[1]; [2],375 L/h
same,"Compound (1) CL/F, Min",[1]; [2],298 L/h
same,"Compound (1) plasma AUC0-inf, Max",[1]; [2],24300 ng·h/mL
same,"Compound (1) plasma AUC0-inf, Min",[1]; [2],16700 ng·h/mL
same,"Compound (1) plasma AUC0-tlast, Max",[1]; [2],24300 ng·h/mL
same,"Compound (1) plasma AUC0-tlast, Min",[1]; [2],16700 ng·h/mL
same,"Compound (1) plasma Cmax, Max",[1]; [2],26000 ng/mL
same,"Compound (1) plasma t1/2, Max",[1]; [2],1.28 h
same,"Compound (1) plasma t1/2, Min",[1]; [2],0.92 h
same,Tmax,"[1]; 0.1 g, Cohort 1 (0.10 g) single oral dose",0.25 h
same,Tmax,"[1]; 0.5 g, Cohort 2 (0.50 g) single oral dose",0.75 h
same,Tmax,"[1]; 1.5 g, Cohort 3 (1.50 g) single oral dose",1 h
same,Tmax,"[1]; 4.5 g, Cohort 5 (4.50 g) single oral dose",0.75 h
same,AUC(0-inf),"[1]; 0.1 g, Cohort 1 (0.10 g) single oral dose, read-out: Compound (1) plasma AUC0-inf, Mean",250 ng·h/mL
same,AUC(0-inf),"[1]; 0.1 g, Cohort 1 (0.10 g) single oral dose, read-out: Compound (1) plasma AUC0-inf, Median",252 ng·h/mL
same,AUC(0-t),"[1]; 0.1 g, Cohort 1 (0.10 g) single oral dose, read-out: Compound (1) plasma AUC0-tlast, Mean",249 ng·h/mL
same,AUC(0-t),"[1]; 0.1 g, Cohort 1 (0.10 g) single oral dose, read-out: Compound (1) plasma AUC0-tlast, Median",250 ng·h/mL
same,Cmax,"[1]; 0.1 g, Cohort 1 (0.10 g) single oral dose, read-out: Compound (1) plasma Cmax, Mean",420 ng/mL
same,Cmax,"[1]; 0.1 g, Cohort 1 (0.10 g) single oral dose, read-out: Compound (1) plasma Cmax, Median",373 ng/mL
same,half-life,"[1]; 0.1 g, Cohort 1 (0.10 g) single oral dose, read-out: Compound (1) plasma t1/2, Mean (converted)",0.7 h
same,half-life,"[1]; 0.1 g, Cohort 1 (0.10 g) single oral dose, read-out: Compound (1) plasma t1/2, Median (converted)",0.71 h
same,AUC(0-inf),"[1]; 0.5 g, Cohort 2 (0.50 g) single oral dose, read-out: Compound (1) plasma AUC0-inf, Mean",1290 ng·h/mL
same,AUC(0-inf),"[1]; 0.5 g, Cohort 2 (0.50 g) single oral dose, read-out: Compound (1) plasma AUC0-inf, Median",1280 ng·h/mL
same,AUC(0-t),"[1]; 0.5 g, Cohort 2 (0.50 g) single oral dose, read-out: Compound (1) plasma AUC0-tlast, Mean",1290 ng·h/mL
same,AUC(0-t),"[1]; 0.5 g, Cohort 2 (0.50 g) single oral dose, read-out: Compound (1) plasma AUC0-tlast, Median",1280 ng·h/mL
same,Cmax,"[1]; 0.5 g, Cohort 2 (0.50 g) single oral dose, read-out: Compound (1) plasma Cmax, Mean",1540 ng/mL
same,Cmax,"[1]; 0.5 g, Cohort 2 (0.50 g) single oral dose, read-out: Compound (1) plasma Cmax, Median",1270 ng/mL
same,half-life,"[1]; 0.5 g, Cohort 2 (0.50 g) single oral dose, read-out: Compound (1) plasma t1/2, Mean (converted)",1.11 h
same,half-life,"[1]; 0.5 g, Cohort 2 (0.50 g) single oral dose, read-out: Compound (1) plasma t1/2, Median (converted)",1.19 h
same,AUC(0-inf),"[1]; 1.5 g, Cohort 3 (1.50 g) single oral dose, read-out: Compound (1) plasma AUC0-inf, Mean",2480 ng·h/mL
same,AUC(0-inf),"[1]; 1.5 g, Cohort 3 (1.50 g) single oral dose, read-out: Compound (1) plasma AUC0-inf, Median",2710 ng·h/mL
same,AUC(0-t),"[1]; 1.5 g, Cohort 3 (1.50 g) single oral dose, read-out: Compound (1) plasma AUC0-tlast, Mean",2860 ng·h/mL
same,AUC(0-t),"[1]; 1.5 g, Cohort 3 (1.50 g) single oral dose, read-out: Compound (1) plasma AUC0-tlast, Median",2960 ng·h/mL
same,Cmax,"[1]; 1.5 g, Cohort 3 (1.50 g) single oral dose, read-out: Compound (1) plasma Cmax, Mean",3360 ng/mL
same,Cmax,"[1]; 1.5 g, Cohort 3 (1.50 g) single oral dose, read-out: Compound (1) plasma Cmax, Median",2920 ng/mL
same,half-life,"[1]; 1.5 g, Cohort 3 (1.50 g) single oral dose, read-out: Compound (1) plasma t1/2, Mean (converted)",1.04 h
same,half-life,"[1]; 1.5 g, Cohort 3 (1.50 g) single oral dose, read-out: Compound (1) plasma t1/2, Median (converted)",1.06 h
same,AUC(0-inf),"[1]; 3 g, Cohort 4 (3.00 g) single oral dose, read-out: Compound (1) plasma AUC0-inf, Mean",7520 ng·h/mL
same,AUC(0-inf),"[1]; 3 g, Cohort 4 (3.00 g) single oral dose, read-out: Compound (1) plasma AUC0-inf, Median",7410 ng·h/mL
same,AUC(0-t),"[1]; 3 g, Cohort 4 (3.00 g) single oral dose, read-out: Compound (1) plasma AUC0-tlast, Mean",7510 ng·h/mL
same,AUC(0-t),"[1]; 3 g, Cohort 4 (3.00 g) single oral dose, read-out: Compound (1) plasma AUC0-tlast, Median",7410 ng·h/mL
same,Cmax,"[1]; 3 g, Cohort 4 (3.00 g) single oral dose, read-out: Compound (1) plasma Cmax, Mean",11300 ng/mL
same,Cmax,"[1]; 3 g, Cohort 4 (3.00 g) single oral dose, read-out: Compound (1) plasma Cmax, Median",11200 ng/mL
same,half-life,"[1]; 3 g, Cohort 4 (3.00 g) single oral dose, read-out: Compound (1) plasma t1/2, Mean (converted)",1.15 h
same,half-life,"[1]; 3 g, Cohort 4 (3.00 g) single oral dose, read-out: Compound (1) plasma t1/2, Median (converted)",1.12 h
same,AUC(0-inf),"[1]; 4.5 g, Cohort 5 (4.50 g) single oral dose, read-out: Compound (1) plasma AUC0-inf, Mean",11400 ng·h/mL
same,AUC(0-inf),"[1]; 4.5 g, Cohort 5 (4.50 g) single oral dose, read-out: Compound (1) plasma AUC0-inf, Median",11600 ng·h/mL
same,AUC(0-t),"[1]; 4.5 g, Cohort 5 (4.50 g) single oral dose, read-out: Compound (1) plasma AUC0-tlast, Mean",11100 ng·h/mL
same,AUC(0-t),"[1]; 4.5 g, Cohort 5 (4.50 g) single oral dose, read-out: Compound (1) plasma AUC0-tlast, Median",11600 ng·h/mL
same,Cmax,"[1]; 4.5 g, Cohort 5 (4.50 g) single oral dose, read-out: Compound (1) plasma Cmax, Mean",12800 ng/mL
same,Cmax,"[1]; 4.5 g, Cohort 5 (4.50 g) single oral dose, read-out: Compound (1) plasma Cmax, Median",14000 ng/mL
same,half-life,"[1]; 4.5 g, Cohort 5 (4.50 g) single oral dose, read-out: Compound (1) plasma t1/2, Mean (converted)",1.14 h
same,half-life,"[1]; 4.5 g, Cohort 5 (4.50 g) single oral dose, read-out: Compound (1) plasma t1/2, Median (converted)",1.13 h
same,AUC(0-inf),"[1]; 6 g, Cohort 6 (6.00 g) single oral dose, read-out: Compound (1) plasma AUC0-inf, Mean",18400 ng·h/mL
same,AUC(0-inf),"[1]; 6 g, Cohort 6 (6.00 g) single oral dose, read-out: Compound (1) plasma AUC0-inf, Median",18000 ng·h/mL
same,AUC(0-t),"[1]; 6 g, Cohort 6 (6.00 g) single oral dose, read-out: Compound (1) plasma AUC0-tlast, Mean",18400 ng·h/mL
same,AUC(0-t),"[1]; 6 g, Cohort 6 (6.00 g) single oral dose, read-out: Compound (1) plasma AUC0-tlast, Median",18000 ng·h/mL
same,Cmax,"[1]; 6 g, Cohort 6 (6.00 g) single oral dose, read-out: Compound (1) plasma Cmax, Mean",17600 ng/mL
same,Cmax,"[1]; 6 g, Cohort 6 (6.00 g) single oral dose, read-out: Compound (1) plasma Cmax, Median",16500 ng/mL
same,half-life,"[1]; 6 g, Cohort 6 (6.00 g) single oral dose, read-out: Compound (1) plasma t1/2, Mean (converted)",1.18 h
same,half-life,"[1]; 6 g, Cohort 6 (6.00 g) single oral dose, read-out: Compound (1) plasma t1/2, Median (converted)",1.18 h
same,AUC(0-inf),"[1]; 7.25 g, Cohort 7 (7.25 g) single oral dose, read-out: Compound (1) plasma AUC0-inf, Mean",19600 ng·h/mL
same,AUC(0-inf),"[1]; 7.25 g, Cohort 7 (7.25 g) single oral dose, read-out: Compound (1) plasma AUC0-inf, Median",19400 ng·h/mL
same,AUC(0-t),"[1]; 7.25 g, Cohort 7 (7.25 g) single oral dose, read-out: Compound (1) plasma AUC0-tlast, Mean",19600 ng·h/mL
same,AUC(0-t),"[1]; 7.25 g, Cohort 7 (7.25 g) single oral dose, read-out: Compound (1) plasma AUC0-tlast, Median",19400 ng·h/mL
same,Cmax,"[1]; 7.25 g, Cohort 7 (7.25 g) single oral dose, read-out: Compound (1) plasma Cmax, Mean",22100 ng/mL
same,Cmax,"[1]; 7.25 g, Cohort 7 (7.25 g) single oral dose, read-out: Compound (1) plasma Cmax, Median",22200 ng/mL
same,half-life,"[1]; 7.25 g, Cohort 7 (7.25 g) single oral dose, read-out: Compound (1) plasma t1/2, Mean (converted)",1.11 h
same,half-life,"[1]; 7.25 g, Cohort 7 (7.25 g) single oral dose, read-out: Compound (1) plasma t1/2, Median (converted)",1.12 h
same,Tmax,[1]; Cohort 4 (3.00 g) single oral dose,0.5 h
same,Tmax,[1]; Cohort 6 (6.00 g) single oral dose,0.5 h
same,Tmax,[1]; [2],0.62 h
same,Purity (Area %),pH 1.2,99.25 Area % and 99.22 Area % and 98.95 Area %
same,Purity (Area %),pH 4.5,99.25 Area % and 99.05 Area % and 98.35 Area %
same,Purity (Area %),pH 6.8,99.08 Area % and 97.58 Area % and 93.14 Area %
same,Purity (Area %),pH 7.4,98.84 Area % and 95.74 Area % and 87.89 Area %
